Assay results from PubChem BioAssay AID2060895 (Molecular Pharmacology Branch, DTP, NCI, 2025).

System: PDC 899932-113-R3-J6 complex spheroid viability
Assay: Anticancer human tumor 899932-113-R3-J6-PDC patient-derived melanoma cell line growth inhibition [RAS]
Details: for IC50: curve of first compound; for viability, T/C: stronger effect = lower value
Procedure, shortened: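 Tumour cells grown as complex spheroids with HUVEC endothelial cells and mesenchymal stem cells, treated with RAS pathway inhibitor combinations. Each agent spans half-log steps from near clinical Cmax, or 10 microM where Cmax is unknown.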

[1] = second compound 0.00316 µM, first compound 0.000949 µM
[2] = second compound 0.00316 µM, first compound 0.003 µM
[3] = second compound 0.00316 µM, first compound 0.00949 µM
[4] = second compound 0.00316 µM, first compound 0.03 µM
[5] = second compound 0.00316 µM, first compound 0.0949 µM
[6] = second compound 0.00316 µM, first compound 0.3 µM
[7] = second compound 0.01 µM, first compound 0.000949 µM
[8] = second compound 0.01 µM, first compound 0.003 µM
[9] = second compound 0.01 µM, first compound 0.00949 µM
[10] = second compound 0.01 µM, first compound 0.03 µM
[11] = second compound 0.01 µM, first compound 0.0949 µM
[12] = second compound 0.01 µM, first compound 0.3 µM
[13] = second compound 0.0316 µM, first compound 0.000949 µM
[14] = second compound 0.0316 µM, first compound 0.003 µM
[15] = second compound 0.0316 µM, first compound 0.00949 µM
[16] = second compound 0.0316 µM, first compound 0.03 µM
[17] = second compound 0.0316 µM, first compound 0.0949 µM
[18] = second compound 0.0316 µM, first compound 0.3 µM
[19] = second compound 0.1 µM, first compound 0.000949 µM
[20] = second compound 0.1 µM, first compound 0.003 µM
[21] = second compound 0.1 µM, first compound 0.00949 µM
[22] = second compound 0.1 µM, first compound 0.03 µM
[23] = second compound 0.1 µM, first compound 0.0949 µM
[24] = second compound 0.1 µM, first compound 0.3 µM
[25] = second compound 0.316 µM, first compound 0.000949 µM
[26] = second compound 0.316 µM, first compound 0.003 µM
[27] = second compound 0.316 µM, first compound 0.00949 µM
[28] = second compound 0.316 µM, first compound 0.03 µM
[29] = second compound 0.316 µM, first compound 0.0949 µM
[30] = second compound 0.316 µM, first compound 0.3 µM
[31] = second compound 1 µM, first compound 0.000949 µM
[32] = second compound 1 µM, first compound 0.003 µM
[33] = second compound 1 µM, first compound 0.00949 µM
[34] = second compound 1 µM, first compound 0.03 µM
[35] = second compound 1 µM, first compound 0.0949 µM
[36] = second compound 1 µM, first compound 0.3 µM
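Wherever viability, T/C is given: spheroids exposed to agents for seven days before readout; 100% = DMSO vehicle control wells.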

`CC1(C)CCC(Nc2ncc(C(F)(F)F)c(-c3c[nH]c4c(P(C)(C)=O)c(C#N)ccc34)n2)CN1` (stereo unspecified) + C=CC(=O)N1CCN(c2nc(OCC3CCCN3C)nc3c(F)c(-c4nc(N)cc(C)c4C(F)(F)F)c(Cl)cc23)C(C)C1 was tested, and the IC50 (second compound 0.00316 µM) was 8.77 nM, the IC50 (second compound 0.01 µM) was 9.74 nM and the IC50 (second compound 0.0316 µM) was 11 nM. It also gave an IC50 (second compound 0.1 µM) of 8.56 nM, an IC50 (second compound 0.316 µM) of 9.45 nM and an IC50 (second compound 1 µM) of 8.03 nM. The viability, T/C [1] was 105%, the viability, T/C [2] was 73% and the viability, T/C [3] was 51.5%. For the same compound, the viability, T/C [4] was 25.9%, the viability, T/C [5] was 16.4% and the viability, T/C [6] was 8.68%. For the same compound, the viability, T/C [7] was 96.8%, the viability, T/C [8] was 79.2% and the viability, T/C [9] was 48%. The viability, T/C [10] was 30.5%, the viability, T/C [11] was 16.4% and the viability, T/C [12] was 11.2%. The viability, T/C [13] was 102%, the viability, T/C [14] was 75.3% and the viability, T/C [15] was 56.3%. The viability, T/C [16] was 29.9%, the viability, T/C [17] was 15.4% and the viability, T/C [18] was 8.82%. It also gave a viability, T/C [19] of 94.8%, a viability, T/C [20] of 68% and a viability, T/C [21] of 51.4%. The viability, T/C [22] was 28.1%, the viability, T/C [23] was 16.4% and the viability, T/C [24] was 8.6%. For the same compound, the viability, T/C [25] was 107%, the viability, T/C [26] was 73.9% and the viability, T/C [27] was 52.9%. The viability, T/C [28] was 30.4%, the viability, T/C [29] was 12.2% and the viability, T/C [30] was 9.67%. It also gave a viability, T/C [31] of 95.1%, a viability, T/C [32] of 71.7% and a viability, T/C [33] of 47.4%. It also gave a viability, T/C [34] of 25.7%, a viability, T/C [35] of 10.5% and a viability, T/C [36] of 10.9%.
`CCc1c2c(nc3ccc(O)cc13)-c1cc3c(c(=O)n1C2)COC(=O)[C@]3(O)CC` + C=CC(=O)N1CCN(c2nc(OCC3CCCN3C)nc3c(F)c(-c4nc(N)cc(C)c4C(F)(F)F)c(Cl)cc23)C(C)C1 gave an IC50 (second compound 0.00316 µM) of 19.6 nM, an IC50 (second compound 0.01 µM) of 24.3 nM and an IC50 (second compound 0.0316 µM) of 33.1 nM. For the same compound, the IC50 (second compound 0.1 µM) was 30.3 nM, the IC50 (second compound 0.316 µM) was 29.4 nM and the IC50 (second compound 1 µM) was 31.8 nM. For the same compound, the viability, T/C [1] was 89.8%, the viability, T/C [2] was 65.9% and the viability, T/C [3] was 57.6%. It also gave a viability, T/C [4] of 48.6%, a viability, T/C [5] of 39.2% and a viability, T/C [6] of 36%. The viability, T/C [7] was 92.8%, the viability, T/C [8] was 67.4% and the viability, T/C [9] was 59.2%. For the same compound, the viability, T/C [10] was 50.2%, the viability, T/C [11] was 43% and the viability, T/C [12] was 36.4%. It also gave a viability, T/C [13] of 93.5%, a viability, T/C [14] of 78% and a viability, T/C [15] of 59.9%. The viability, T/C [16] was 51%, the viability, T/C [17] was 43.9% and the viability, T/C [18] was 30.3%. For the same compound, the viability, T/C [19] was 102%, the viability, T/C [20] was 69.5% and the viability, T/C [21] was 61.3%. It also gave a viability, T/C [22] of 55.7%, a viability, T/C [23] of 43.2% and a viability, T/C [24] of 38.4%. The viability, T/C [25] was 95.6%, the viability, T/C [26] was 71.7% and the viability, T/C [27] was 58.6%. The viability, T/C [28] was 54.1%, the viability, T/C [29] was 43% and the viability, T/C [30] was 34.4%. The viability, T/C [31] was 96.5%, the viability, T/C [32] was 75% and the viability, T/C [33] was 59.9%. The viability, T/C [34] was 51.7%, the viability, T/C [35] was 44.6% and the viability, T/C [36] was 34.3%.
`C=CC(=O)Nc1cc(Nc2nccc(-c3cn(C)c4ccccc34)n2)c(OC)cc1N(C)CCN(C)C` + CCn1c(-c2cc(N3CCN(C)CC3)cnc2C(C)OC)c2c3cc(ccc31)-c1csc(n1)CC(NC(=O)C1CC1C)C(=O)N1CCCC(N1)C(=O)OCC(C)(C)C2 was tested, and the IC50 (second compound 0.000949 µM) was over 1000 nM, the IC50 (second compound 0.003 µM) was under 3.16 nM and the IC50 (second compound 0.00949 µM) was under 3.16 nM. It also gave an IC50 (second compound 0.03 µM) of under 3.16 nM, an IC50 (second compound 0.0949 µM) of under 3.16 nM and an IC50 (second compound 0.3 µM) of under 3.16 nM. It also gave a viability, T/C (second compound 0.000949 µM, first compound 0.00316 µM) of 69.1%, a viability, T/C (second compound 0.000949 µM, first compound 0.01 µM) of 69.2% and a viability, T/C (second compound 0.000949 µM, first compound 0.0316 µM) of 67%. The viability, T/C (second compound 0.000949 µM, first compound 0.1 µM) was 79.7%, the viability, T/C (second compound 0.000949 µM, first compound 0.316 µM) was 76.7% and the viability, T/C (second compound 0.000949 µM, first compound 1 µM) was 64.3%. For the same compound, the viability, T/C (second compound 0.003 µM, first compound 0.00316 µM) was 32.5%, the viability, T/C (second compound 0.003 µM, first compound 0.01 µM) was 28.4% and the viability, T/C (second compound 0.003 µM, first compound 0.0316 µM) was 28.7%. The viability, T/C (second compound 0.003 µM, first compound 0.1 µM) was 33.8%, the viability, T/C (second compound 0.003 µM, first compound 0.316 µM) was 31.5% and the viability, T/C (second compound 0.003 µM, first compound 1 µM) was 16.9%. It also gave a viability, T/C (second compound 0.00949 µM, first compound 0.00316 µM) of 4.3%, a viability, T/C (second compound 0.00949 µM, first compound 0.01 µM) of 3.34% and a viability, T/C (second compound 0.00949 µM, first compound 0.0316 µM) of 3.46%. The viability, T/C (second compound 0.00949 µM, first compound 0.1 µM) was 3.41%, the viability, T/C (second compound 0.00949 µM, first compound 0.316 µM) was 2.9% and the viability, T/C (second compound 0.00949 µM, first compound 1 µM) was 2.5%. The viability, T/C (second compound 0.03 µM, first compound 0.00316 µM) was 2.61%, the viability, T/C (second compound 0.03 µM, first compound 0.01 µM) was 2.72% and the viability, T/C (second compound 0.03 µM, first compound 0.0316 µM) was 2.62%. The viability, T/C (second compound 0.03 µM, first compound 0.1 µM) was 2.55%, the viability, T/C (second compound 0.03 µM, first compound 0.316 µM) was 2.41% and the viability, T/C (second compound 0.03 µM, first compound 1 µM) was 1.43%. For the same compound, the viability, T/C (second compound 0.0949 µM, first compound 0.00316 µM) was 2.26%, the viability, T/C (second compound 0.0949 µM, first compound 0.01 µM) was 2.18% and the viability, T/C (second compound 0.0949 µM, first compound 0.0316 µM) was 2.56%. The viability, T/C (second compound 0.0949 µM, first compound 0.1 µM) was 2.02%, the viability, T/C (second compound 0.0949 µM, first compound 0.316 µM) was 1.87% and the viability, T/C (second compound 0.0949 µM, first compound 1 µM) was 1.11%. It also gave a viability, T/C (second compound 0.3 µM, first compound 0.00316 µM) of 2.04%, a viability, T/C (second compound 0.3 µM, first compound 0.01 µM) of 2.23% and a viability, T/C (second compound 0.3 µM, first compound 0.0316 µM) of 1.88%. The viability, T/C (second compound 0.3 µM, first compound 0.1 µM) was 1.96%, the viability, T/C (second compound 0.3 µM, first compound 0.316 µM) was 1.49% and the viability, T/C (second compound 0.3 µM, first compound 1 µM) was 1.11%.
